Laboratory results: patent US12440496B2, “Natriuretic peptide receptor a agonists useful for the treatment of cardiometabolic diseases, kidney disease and diabetes” (Merck Sharp & Dohme LLC, priority 2019, dated 2025)
Counter-ions that a name gives are not always drawn.

Molecular target: T1, hNPRA (Homo sapiens, UniProt P16066)
T1 construct: expressed in transfected cells
T1 sequence (P16066 33-1061): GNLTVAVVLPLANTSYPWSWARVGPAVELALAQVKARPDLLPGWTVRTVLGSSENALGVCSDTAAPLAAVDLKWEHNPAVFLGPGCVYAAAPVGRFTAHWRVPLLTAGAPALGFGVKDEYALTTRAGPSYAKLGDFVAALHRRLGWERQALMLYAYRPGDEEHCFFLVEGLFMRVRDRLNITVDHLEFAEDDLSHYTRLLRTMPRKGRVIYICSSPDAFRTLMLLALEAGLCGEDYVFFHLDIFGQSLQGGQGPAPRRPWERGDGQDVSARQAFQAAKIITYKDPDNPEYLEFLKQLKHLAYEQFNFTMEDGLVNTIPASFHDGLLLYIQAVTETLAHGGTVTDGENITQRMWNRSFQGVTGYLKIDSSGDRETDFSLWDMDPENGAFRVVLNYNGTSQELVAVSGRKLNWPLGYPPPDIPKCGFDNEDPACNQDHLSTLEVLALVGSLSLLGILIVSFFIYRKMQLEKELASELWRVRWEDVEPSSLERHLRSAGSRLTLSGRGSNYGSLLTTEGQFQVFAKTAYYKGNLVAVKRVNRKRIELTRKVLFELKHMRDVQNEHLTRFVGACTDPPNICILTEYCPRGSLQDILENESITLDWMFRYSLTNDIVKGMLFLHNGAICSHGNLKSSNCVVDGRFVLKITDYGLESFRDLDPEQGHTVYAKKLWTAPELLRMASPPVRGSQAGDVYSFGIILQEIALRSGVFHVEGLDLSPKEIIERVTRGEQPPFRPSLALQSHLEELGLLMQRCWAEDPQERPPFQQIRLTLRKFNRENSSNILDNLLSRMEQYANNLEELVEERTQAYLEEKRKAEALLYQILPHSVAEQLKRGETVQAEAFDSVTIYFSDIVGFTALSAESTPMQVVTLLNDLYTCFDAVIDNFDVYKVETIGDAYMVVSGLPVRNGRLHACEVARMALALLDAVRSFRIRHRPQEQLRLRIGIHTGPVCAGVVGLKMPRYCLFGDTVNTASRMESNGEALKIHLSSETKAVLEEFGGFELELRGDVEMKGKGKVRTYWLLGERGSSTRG
Test: NPRA Functional Cell Assay (cGMP HTRF, NPRA HEK JumpIn stable cells)
Type: cell-based
Settings: cGMP production, 1 hour at 37° C., 10-point dose response
Procedure, shortened: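 cGMP HTRF read-out after 1 hour compound treatment at 37° C. of human NPRA-expressing HEK JumpIn cells, 1500 cells/well, in buffer with phosphodiesterase inhibitors IBMX and RO20 (100 uM each). Signal converted to [cGMP] by calibration curve; EC50s fitted by 4-parameter logistic; 50 nM h-ANP as positive response.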

**Q.** How did the EC50 turn out when CN(C)CC[C@@H](NC(=O)c1nc2cc3c(nc2s1)CC[C@H](C(C)(C)C)C3)c1cccc(C(=O)N2CC(N)C2)c1 (racemic) [Example 94, rac-(7S)-7-tert-butyl-N-[rac-(1R)-1-[3-(3-aminoazetidine-1-carbonyl)phenyl]-3-(dimethylamino)propyl]-5,6,7,8-tetrahydrothiazolo [5,4-b]quinoline-2-carboxamide] was run?
**A.** 566 nM

**Q.** For CN1CCCC(NC(=O)c2cccc([C@@H](CCN3CCC(O)CC3)NC(=O)c3nc4cc5c(nc4s3)CC[C@H](C(C)(C)C)C5)c2)C1 (mixture of isomers) [Example 140, rac-(7S)-7-tert-butyl-N-[rac-(1R)-3-(4-hydroxy-1-piperidyl)-1-[3-[(1-methyl-3-piperidyl)carbamoyl]phenyl]propyl]-5,6,7,8-tetrahydrothiazolo[5,4-b]quinoline-2-carboxamide], which EC50 is on record?
**A.** 224 nM

**Q.** Which EC50 does the source give for CC(C)(C)[C@H]1CCc2nc3sc(C(=O)N[C@H](CCN4CCCCC4)c4ccc(-c5csc(C(=O)O)c5)cc4)cc3cc2C1 (racemic) [Example 6, ammonium;4-[4-[rac-(1R)-3-(1-piperidyl)-1-[rac-(6S)-6-tert-butyl-5,6,7,8-tetrahydrothieno[2,3-b]quinoline-2-carbonyl]amino]propyl] phenyl]thiophene-2-carboxylate] here?
**A.** 877 nM

**Q.** Which EC50 does the source give for CC(C)(C)[C@H]1CCc2nc3sc(C(=O)N[C@H](CCN4CCC(O)CC4)c4ccc(-c5ccc(=O)[nH]c5)cc4)nc3cc2C1 (racemic) [Example 164, rac-(7S)-7-tert-butyl-N-[rac-(1R)-3-(4-hydroxypiperidin-1-ium-1-yl)-1-[4-(6-hydroxy-3-pyridyl)phenyl]propyl]-5,6,7,8-tetrahydrothiazolo[5,4-b]quinoline-2-carboxamide; 2,2,2-trifluoroacetate] here?
**A.** 590 nM

**Q.** For CC1(C)NCCC1NC(=O)c1cccc([C@@H](CCN2CCC(O)CC2)NC(=O)c2nc3cc4c(nc3s2)CC[C@H](C(C)(C)C)C4)c1 (mixture of isomers) [Example 139, rac-(7S)-7-tert-butyl-N-[rac-(1R)-1-[3-[(2,2-dimethylpyrrolidin-3-yl)carbamoyl]phenyl]-3-(4-hydroxy-1-piperidyl)propyl]-5,6,7,8-tetrahydrothiazolo[5,4-b]quinoline-2-carboxamide], which EC50 is on record?
**A.** 219 nM

**Q.** CC(C)(C)[C@H]1CCc2nc3sc(C(=O)N[C@H](CCN4CCC[C@H](O)[C@H]4CO)c4ccc(-c5ccc(=O)[nH]c5)cc4)cc3cc2C1 (racemic) [Example 31, rac-(6S)-6-tert-butyl-N-[rac-(1R)-1-[4-(6-oxo-1H-pyridin-3-yl)phenyl]-3-[rac-(2R,3S)-3-hydroxy-2-(hydroxymethyl)piperidin-1-ium-1-yl]propyl]-5,6,7,8-tetrahydrothieno[2,3-b]quinoline-2-carboxamide; formate] was tested. Which EC50 did it give?
**A.** 473 nM

**Q.** For CN(C)CC[C@@H](NC(=O)c1nc2cc3c(nc2s1)CC[C@H](C(C)(C)C)C3)c1cccc(C(N)=O)c1 (racemic) [Example 99, rac-(7S)-7-tert-butyl-N-[rac-(1R)-1-(3-carbamoylphenyl)-3-(dimethylamino)propyl]-5,6,7,8-tetrahydrothiazolo[5,4-b] quinoline-2-carboxamide], which EC50 is on record?
**A.** 1830 nM

**Q.** How did the EC50 turn out when CC1([C@H]2CCc3nc4sc(C(=O)N[C@H](CCN5CCC(O)CC5)c5ccc(-c6ccnnc6)nc5)nc4cc3C2)CC1 [Example 264, (S)-N-((R)-3-(4-hydroxypiperidin-1-yl)-1-(6-(pyridazin-4-yl)pyridin-3-yl)propyl)-7-(1-methylcyclopropyl)-5,6,7,8-tetrahydrothiazolo[5,4-b]quinoline-2-carboxamide] was run?
**A.** 113 nM

**Q.** For CC(C)(C)[C@H]1CCc2nc3sc(C(=O)N[C@H](CCN4CCC(O)CC4)c4ccc(-c5cnc(=O)[nH]c5)cc4)nc3cc2C1 (racemic) [Example 127, rac-(7S)-7-tert-butyl-N-[rac-(1R)-3-(4-hydroxypiperidin-1-ium-1-yl)-1-[4-(2-oxo-1H-pyrimidin-5-yl)phenyl]propyl]-5,6,7,8-tetrahydrothiazolo [5,4-b]quinoline-2-carboxamide; 2,2,2-trifluoroacetate], which EC50 is on record?
**A.** 452 nM
